Laboratory results reported in US7671061B2, “Methods and compositions for treating pain” (Hydra Biosciences, Inc., priority 2005, dated 2010).
pIC50: −log10 of the molar value.

Target: T1, hTRPA1 (Homo sapiens, UniProt O75762, K186N)
T1 construct: expressed in transfected cells; host or cells: HEK293/TREx (Invitrogen), induced with tetracycline
Test: High throughput Ca2+ fluorescence (Fluo4) assay, AITC stimulation
Assay type: cell-based
Conditions: Table 1; read-out: hTRPA1 Fluo4 IC50
Description: The assay depended on detection of the rise in intracellular Ca^2+ concentration ([Ca^2+]i) following channel activation in cells inducibly expressing the TRPA1 channel. Ca^2+ rise was quantified with the use of fluorescent Ca^2+ indicators that were loaded into cells and thereafter indicated the [Ca^2+]i. Ca^2+ influx followed activation of the TRPA1 channel. Compounds inhibiting the [Ca^2+]i rise were considered hits for further investigation.
These cells were maintained in the growth medium recommended by the manufacturer supplemented with 100 μg/ml hygromycin to promote retention of the TRPA1 construct. After growing to near confluency, cells were plated at a density of ˜25,000 cells/well in 384 well CellBind plates (Corning) in the presence of 1 μg/ml tetracycline, and allowed to grow for 20-30 hrs. A nearly confluent monolayer resulted. Cells were then loaded with Ca^2+ dye: Fura-2/AM or Fluo4/AM was added to the wells to a final concentration of 2 μM or 1 μM, respectively, and incubated for 80 min or 60 min, respectively, at room temperature. […] Frames were acquired at a rate of 0.2 Hz. During the assay, the plates were continuously […], with pipette mixing of wells following addition of each reagent. For the screening assay, 13 μl of a diluted stock (at 50 μM) was added to each well for 2 minutes following the collection of a short (4 frame) baseline. […] Data was collected for ˜3 minutes following addition of AITC, where the fluorescent intensity (for Fluo4) and the F340/F380 ratio (for Fura-2) were proportional to the [Ca^2+]i. Negative controls consisted of HEK293/TREx TRPA1 cells exposed to AITC, but no compound. […] These controls defined a screening window, and “hits” were defined as those compounds inhibiting the fluorescence response by at least 40%. IC50 values were determined for compounds defined as “hits.” The Fluo4 cell-based fluorescence assay was used to determine the intracellular Ca^2+ concentration in the presence of varying drug concentration. […] Compounds were tested in triplicate at all concentrations. Standard software was used to fit IC50 curves.

T1 sequence (O75762 whole entry K186N): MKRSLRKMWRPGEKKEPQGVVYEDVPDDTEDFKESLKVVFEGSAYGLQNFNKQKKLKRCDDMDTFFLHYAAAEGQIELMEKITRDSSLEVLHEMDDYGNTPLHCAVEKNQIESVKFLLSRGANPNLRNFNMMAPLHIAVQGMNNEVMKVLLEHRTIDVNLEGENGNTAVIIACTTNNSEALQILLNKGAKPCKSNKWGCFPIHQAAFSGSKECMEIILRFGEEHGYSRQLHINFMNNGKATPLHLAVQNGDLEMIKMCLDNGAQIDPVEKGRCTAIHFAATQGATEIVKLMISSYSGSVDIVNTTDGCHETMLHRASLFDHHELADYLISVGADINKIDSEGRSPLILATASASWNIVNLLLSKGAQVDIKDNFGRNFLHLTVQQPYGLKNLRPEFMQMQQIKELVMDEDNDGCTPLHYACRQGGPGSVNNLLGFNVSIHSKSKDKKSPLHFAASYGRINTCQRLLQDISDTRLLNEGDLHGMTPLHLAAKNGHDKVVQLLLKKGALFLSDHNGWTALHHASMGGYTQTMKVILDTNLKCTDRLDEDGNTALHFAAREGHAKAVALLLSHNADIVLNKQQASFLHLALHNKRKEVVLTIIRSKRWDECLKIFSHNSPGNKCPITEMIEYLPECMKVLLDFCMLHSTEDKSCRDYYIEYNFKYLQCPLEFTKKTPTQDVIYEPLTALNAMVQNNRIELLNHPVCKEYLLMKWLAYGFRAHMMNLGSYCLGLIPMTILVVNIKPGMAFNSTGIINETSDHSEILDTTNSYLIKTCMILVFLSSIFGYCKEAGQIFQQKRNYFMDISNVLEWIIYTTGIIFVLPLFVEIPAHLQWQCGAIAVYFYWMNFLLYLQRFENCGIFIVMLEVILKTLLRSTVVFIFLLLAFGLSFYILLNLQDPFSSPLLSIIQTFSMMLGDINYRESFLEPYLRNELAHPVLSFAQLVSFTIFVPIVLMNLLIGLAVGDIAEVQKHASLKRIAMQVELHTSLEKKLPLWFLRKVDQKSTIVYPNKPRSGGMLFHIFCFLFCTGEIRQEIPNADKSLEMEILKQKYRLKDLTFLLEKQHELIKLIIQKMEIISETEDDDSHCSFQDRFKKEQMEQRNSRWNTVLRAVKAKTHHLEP

Row | SMILES | pIC50
1 | CC1=C(C(=O)N2CCOCC2)C(c2ccc(Cl)cc2)NC(=O)N1 (stereo not drawn) | < 5.00
2 | CC1=C(C(=O)N2CCOCC2)C(c2cccc(F)c2)NC(=O)N1 (stereo not drawn) | ≥ 5.30
3 | CCN(CC)C(=O)C1=C(C)NC(=S)NC1c1ccc(F)cc1 (stereo not drawn) | < 5.00
4 | CCOC(=O)C1=C(C)NC(=S)NC1c1ccc(O)c(OC)c1 (stereo not drawn) | ≥ 5.00
5 | CCOC(=O)C1=C(C)NC(=S)NC1c1ccc(N(C)C)cc1 (stereo not drawn) | < 5.00
6 | COC(=O)C1=C(C)NC(=O)NC1c1ccccc1OC (stereo not drawn) | < 5.00
7 | CCOC(=O)C1=C(C)NC(=S)NC1c1ccccc1 (stereo not drawn) | < 5.00
8 | COC(=O)C1=C(C)NC(=O)NC1c1ccc(O)c(OC)c1 (stereo not drawn) | < 5.00
9 | CC1=C(C(=O)Nc2ccccc2)C(c2ccc(F)cc2)NC(=S)N1 (stereo not drawn) | ≤ 4.52
10 | CC1=C(C(=O)Nc2ccccc2)C(c2ccccc2)NC(=S)N1 (stereo not drawn) | ≤ 4.52
11 | CC1=C(C(=O)Nc2ccccc2)C(c2ccc(Br)cc2)NC(=S)N1 (stereo not drawn) | < 5.00
12 | CCOC(=O)C1=C(C)NC(=S)NC1c1ccc(OC)c(OC)c1 (stereo not drawn) | < 5.00
13 | CCOC(=O)C1=C(c2ccccc2)NC(=S)NC1c1ccccc1 (stereo not drawn) | ≥ 5.00
14 | COC(=O)C1=C(C)NC(=O)NC1c1ccc(O)cc1 (stereo not drawn) | < 5.00
15 | CCOc1ccccc1C1NC(=O)NC(C)=C1C(=O)OC (stereo not drawn) | < 5.00
16 | CCOC(=O)C1=C(C)NC(=O)NC1c1ccc(O)cc1 (stereo not drawn) | < 5.00
17 | CCOC(=O)C1=C(C)NC(=S)NC1c1cc(OC)ccc1OC (stereo not drawn) | < 5.00
18 | CCOC(=O)C1=C(C)NC(=O)NC1c1ccc(OCC)cc1 (stereo not drawn) | < 5.00
19 | CC1=C(C(=O)OC(C)C)C(c2ccccc2F)NC(=S)N1 (stereo not drawn) | < 5.00
20 | CC1=C(C(=O)OC(C)C)C(c2c(O)ccc3ccccc23)NC(=S)N1 (stereo not drawn) | < 5.00
21 | CCOC(=O)C1=C(C)NC(=S)NC1c1ccc(O)cc1 (stereo not drawn) | < 5.00
22 | CCOC(=O)C1=C(c2ccccc2)NC(=S)NC1c1ccc(SC)cc1 (stereo not drawn) | ≥ 5.30
23 | CCOC(=O)C1=C(c2ccccc2)NC(=S)NC1c1cccc(OC)c1OC (stereo not drawn) | < 5.00
24 | CCOC(=O)C1=C(c2ccccc2)NC(=S)NC1c1ccc(OCC)cc1 (stereo not drawn) | < 5.00
25 | COc1cccc(C2NC(=S)NC(C)=C2C(=O)OCc2ccccc2)c1 (stereo not drawn) | < 5.00
26 | CCOC(=O)C1=C(c2ccccc2)NC(=S)NC1c1ccccc1OC (stereo not drawn) | < 5.00

Row | SMILES | pIC50
27 | CCOC(=O)C1=C(c2ccccc2)NC(=O)NC1c1ccccc1F (stereo not drawn) | < 5.00
28 | CCOC(=O)C1=C(C)NC(=O)NC1c1ccccc1C (stereo not drawn) | < 5.00
29 | COC(=O)C1=C(C)N(C)C(=O)N(C)C1c1cccc([N+](=O)[O-])c1 (stereo not drawn) | < 5.00
30 | CCOC(=O)C1=C(C)NC(=O)NC1c1ccc(F)cc1F (stereo not drawn) | < 5.00
31 | CCOC(=O)C1=C(C)N(CC)C(=O)NC1c1ccccc1Cl (stereo not drawn) | ≤ 4.70
32 | CCN1C(=O)NC(c2ccc(Br)cc2)C(C(=O)OC(C)C)=C1C (stereo not drawn) | ≥ 5.30
33 | CCCC1=C(C(=O)OCC)C(c2ccc(Br)cc2)NC(=O)N1 (stereo not drawn) | ≤ 4.52
34 | CCOC(=O)C1=C(c2ccccc2)NC(=O)NC1c1ccc(CC)cc1 (stereo not drawn) | ≥ 5.00
35 | CCCC1=C(C(=O)OCC)C(c2ccc(CC)cc2)NC(=O)N1 (stereo not drawn) | < 5.00
36 | CCCC1=C(C(=O)OCC)C(c2ccc(Cl)cc2Cl)NC(=O)N1 (stereo not drawn) | < 5.00
37 | CC1=C(C(=O)OCC(C)C)C(c2ccc([N+](=O)[O-])cc2)NC(=O)N1C (stereo not drawn) | ≥ 5.30
38 | CC1=C(C(=O)OC2CCCC2)C(c2ccccc2Cl)NC(=O)N1C (stereo not drawn) | < 5.00
39 | COCCOC(=O)C1=C(C)NC(=S)NC1c1ccc(F)cc1 (stereo not drawn) | ≥ 5.30
40 | COCCOC(=O)C1=C(C)NC(=S)NC1c1ccc(Br)cc1 (stereo not drawn) | < 5.00
41 | COCCOC(=O)C1=C(C)NC(=S)NC1c1cccc(Br)c1 (stereo not drawn) | < 5.00
42 | CCOC(=O)C1=C(C)NC(=O)NC1c1ccc(SC)cc1 (stereo not drawn) | < 5.00
43 | COC(=O)C1=C(C)N(C)C(=S)NC1c1ccc(OC)cc1 (stereo not drawn) | ≤ 4.52
44 | COc1ccc(C2NC(=S)N(C)C(C)=C2C(=O)Nc2ccccc2)cc1 (stereo not drawn) | < 5.00
45 | COC(=O)C1=C(C)N(C)C(=S)NC1c1cccc(OC)c1 (stereo not drawn) | ≤ 4.70
46 | COC(=O)C1=C(C)N(C)C(=S)NC1c1ccc(Cl)cc1 (stereo not drawn) | ≥ 5.00
47 | CC1=C(C(=O)OC(C)C)C(c2ccc(C(C)C)cc2)NC(=O)N1 (stereo not drawn) | < 5.00
48 | CCOC(=O)C1=C(C)NC(=S)NC1c1ccc(OC(C)C)cc1 (stereo not drawn) | < 5.00
49 | COC(=O)C1=C(C)NC(=S)NC1c1ccc(OC(C)C)cc1 (stereo not drawn) | < 5.00
50 | CC1=C(C(=O)N2CCOCC2)C(c2cccc(Cl)c2)NC(=O)N1 (stereo not drawn) | < 5.00
51 | CC1=C(C(=O)OC(C)C)C(c2ccc(Cl)cc2)NC(=S)N1 (stereo not drawn) | < 5.00
52 | COC(=O)C1=C(C)NC(=S)NC1c1cc(OC)ccc1Br (stereo not drawn) | ≥ 5.30

Row | SMILES | pIC50
53 | CCOC(=O)C1=C(C)N(C)C(=O)NC1c1cccc(Cl)c1Cl (stereo not drawn) | < 5.00
54 | COC(=O)C1=C(C)N(C)C(=O)NC1c1cccc(Cl)c1 (stereo not drawn) | < 5.00
55 | CCOC(=O)C1=C(C)NC(=S)NC1c1ccc(CC)cc1 (stereo not drawn) | < 5.00
56 | COC(=O)C1=C(C)N(C)C(=O)NC1c1ccc(C(C)(C)C)cc1 (stereo not drawn) | < 5.00
57 | CCOC(=O)C1=C(C)NC(=S)NC1c1cc(OC)ccc1Br (stereo not drawn) | < 5.00
58 | CCOC(=O)C1=C(C)NC(=S)NC1c1cc(C)ccc1C (stereo not drawn) | < 5.00
59 | COC(=O)C1=C(C)N(C)C(=O)NC1c1cc(Br)ccc1F (stereo not drawn) | < 5.00
60 | CCC(C)OC(=O)C1=C(C)NC(=O)NC1c1ccc(C(F)(F)F)cc1 (stereo not drawn) | ≥ 5.00
61 | CCCC1=C(C(=O)OCC)C(c2cccc([N+](=O)[O-])c2)NC(=O)N1C (stereo not drawn) | < 5.00
62 | COC(=O)C1=C(C)NC(=O)NC1c1cc(C)ccc1C (stereo not drawn) | < 5.00
63 | COC(=O)C1=C(C)NC(=O)NC1c1ccc(C(C)(C)C)cc1 (stereo not drawn) | < 5.00
64 | COC(=O)C1=C(C)NC(=O)NC1c1ccc2ccccc2c1 (stereo not drawn) | < 5.00
65 | CC1=C(C(=O)OC(C)(C)C)C(c2cccc(Br)c2)NC(=O)N1 (stereo not drawn) | < 5.00
66 | CC1=C(C(=O)OC(C)(C)C)C(c2ccccc2Cl)NC(=O)N1 (stereo not drawn) | < 5.00
67 | COC(=O)C1=C(C)NC(=S)NC1c1ccccc1OC(C)C (stereo not drawn) | < 5.00
68 | CC1=C(C(=O)OC2CCCCCC2)C(c2cccc(C)c2)NC(=O)N1 (stereo not drawn) | < 5.00
69 | CCC(C)OC(=O)C1=C(C)NC(=O)NC1c1ccc(F)c(Br)c1 (stereo not drawn) | < 5.00
70 | CC1=C(C(=O)OC(C)C)C(c2ccc(F)c(Br)c2)NC(=O)N1 (stereo not drawn) | < 5.00
71 | CCN(CC)C(=O)C1=C(C)NC(=S)NC1c1ccccc1OC (stereo not drawn) | < 5.00
72 | CCN(CC)C(=O)C1=C(C)NC(=S)NC1c1ccccc1 (stereo not drawn) | < 5.00
73 | CCOC(=O)C1=C(C)N(C)C(=S)NC1c1cccc(Cl)c1Cl (stereo not drawn) | < 5.00
74 | CCN(CC)C(=O)C1=C(C)NC(=O)NC1c1c(F)cccc1Cl (stereo not drawn) | < 5.00
75 | CCN(CC)C(=O)C1=C(C)NC(=S)NC1c1ccc(Br)cc1 (stereo not drawn) | < 5.00
76 | C=CCOC(=O)C1=C(C)NC(=S)NC1c1cccc(OC)c1 (stereo not drawn) | ≥ 5.00
77 | CCN1C(=O)NC(c2c(F)cccc2Cl)C(C(=O)OC)=C1C (stereo not drawn) | < 5.00
78 | C=CCOC(=O)C1=C(C)NC(=S)NC1c1ccccc1F (stereo not drawn) | < 5.00

Row | SMILES | pIC50
79 | CCN(CC)C(=O)C1=C(C)NC(=S)NC1c1ccccc1F (stereo not drawn) | < 5.00
80 | CSc1ccc(C2NC(=O)NC(C)=C2C(=O)OCc2ccccc2)cc1 (stereo not drawn) | < 5.00
81 | COC(=O)C1=C(C)N(C)C(=O)NC1c1ccccc1C (stereo not drawn) | < 5.00
82 | COC(=O)C1=C(C)N(C)C(=O)NC1c1c(Cl)cccc1Cl (stereo not drawn) | < 5.00
83 | CCOc1ccc(C2NC(=S)NC(C)=C2C(=O)OC(C)C)cc1 (stereo not drawn) | < 5.00
84 | CCOC(=O)C1=C(C)NC(=S)NC1c1cccc(OC2CCCC2)c1 (stereo not drawn) | ≥ 5.30
85 | CC1=C(C(=O)OC2CCCC2)C(c2ccc(C)c(Br)c2)NC(=O)N1 (stereo not drawn) | < 5.00
86 | CCN1C(=O)NC(c2ccccc2Br)C(C(=O)OC)=C1C (stereo not drawn) | < 5.00
87 | CCN1C(=O)NC(c2ccc(Cl)cc2Cl)C(C(=O)OC)=C1C (stereo not drawn) | < 5.00
88 | CCOC(=O)C1=C(C)NC(=S)NC1c1ccccc1OC1CCCC1 (stereo not drawn) | < 5.00
89 | CCN1C(=O)NC(c2cc(C)ccc2C)C(C(=O)OC)=C1C (stereo not drawn) | < 5.00
90 | CCOC(=O)C1=C(CN2CCCCC2)NC(=O)NC1c1cc(C)ccc1C (stereo not drawn) | < 5.00
91 | CCOC(=O)C1=C(CN2CCC(C)CC2)NC(=O)NC1c1ccc(Cl)cc1 (stereo not drawn) | < 5.00
92 | CCOC(=O)C1=C(CN2CCN(C)CC2)NC(=O)NC1c1ccc(Cl)cc1 (stereo not drawn) | < 5.00
93 | CCOC(=O)C1=C(CN2CCN(C)CC2)NC(=O)NC1c1cc(C)ccc1C (stereo not drawn) | < 5.00
94 | CCOC(=O)C1=C(CN2CCc3ccccc32)NC(=O)NC1c1cc(C)ccc1C (stereo not drawn) | < 5.00
95 | CCOC(=O)C1=C(CN2CCc3ccccc32)NC(=O)NC1c1cccc([N+](=O)[O-])c1 (stereo not drawn) | < 5.00
96 | CCOC(=O)C1=C(C)NC(=S)NC1c1ccc(C)cc1C (stereo not drawn) | < 5.00
97 | COC(=O)C1=C(CN2CCN(C)CC2)NC(=O)NC1c1cc(C)ccc1C (stereo not drawn) | < 5.00
98 | CCOC(=O)C1=C(CN2CC(C)CC(C)C2)NC(=O)NC1c1ccc(Cl)cc1 (stereo not drawn) | < 5.00
99 | CCOC(=O)C1=C(CN2CCc3ccccc32)NC(=O)NC1c1ccc(Cl)cc1 (stereo not drawn) | ≥ 5.00
100 | COC(=O)C1=C(CN2CCCCC2)NC(=O)NC1c1ccc(C)cc1C (stereo not drawn) | < 5.00
101 | COC(=O)C1=C(CN2CCCC2)NC(=O)NC1c1cc(C)ccc1C (stereo not drawn) | < 5.00
102 | CCOC(=O)C1=C(C(C)C)NC(=O)NC1c1ccc(F)cc1 (stereo not drawn) | < 5.00
